Calls of active or inactive are those of the source. No cut-off for these calls is given here.
How the values were obtained:
[1] = Enhancement of ConA-induced proliferation in Swiss Albino mouse splenocyte at 10 uM after 72 hrs by MTT assay relative to control; type: functional
[2] = Reduction of ConA-induced IL4 secretion in Swiss Albino mouse splenocytes by ELISA relative to control; type: functional, Splenocyte; design: scale not given: the % may be the effect or the level left
[3] = Enhancement of ConA-induced IL2 secretion in Swiss Albino mouse splenocytes by ELISA relative to control; type: functional, Splenocyte
[4] = Enhancement of ConA-induced proliferation in Swiss Albino mouse splenocyte at 20 uM after 72 hrs by MTT assay relative to control; type: functional
[5] = Enhancement of ConA-induced proliferation in Swiss Albino mouse splenocyte at 100 uM after 72 hrs by MTT assay relative to control; type: functional
[6] = molecular target: T1, Neutral alpha-glucosidase AB (Homo sapiens) (UniProt Q14697); experiment: Inhibition of human alpha glucosidase
T1 sequence (whole entry): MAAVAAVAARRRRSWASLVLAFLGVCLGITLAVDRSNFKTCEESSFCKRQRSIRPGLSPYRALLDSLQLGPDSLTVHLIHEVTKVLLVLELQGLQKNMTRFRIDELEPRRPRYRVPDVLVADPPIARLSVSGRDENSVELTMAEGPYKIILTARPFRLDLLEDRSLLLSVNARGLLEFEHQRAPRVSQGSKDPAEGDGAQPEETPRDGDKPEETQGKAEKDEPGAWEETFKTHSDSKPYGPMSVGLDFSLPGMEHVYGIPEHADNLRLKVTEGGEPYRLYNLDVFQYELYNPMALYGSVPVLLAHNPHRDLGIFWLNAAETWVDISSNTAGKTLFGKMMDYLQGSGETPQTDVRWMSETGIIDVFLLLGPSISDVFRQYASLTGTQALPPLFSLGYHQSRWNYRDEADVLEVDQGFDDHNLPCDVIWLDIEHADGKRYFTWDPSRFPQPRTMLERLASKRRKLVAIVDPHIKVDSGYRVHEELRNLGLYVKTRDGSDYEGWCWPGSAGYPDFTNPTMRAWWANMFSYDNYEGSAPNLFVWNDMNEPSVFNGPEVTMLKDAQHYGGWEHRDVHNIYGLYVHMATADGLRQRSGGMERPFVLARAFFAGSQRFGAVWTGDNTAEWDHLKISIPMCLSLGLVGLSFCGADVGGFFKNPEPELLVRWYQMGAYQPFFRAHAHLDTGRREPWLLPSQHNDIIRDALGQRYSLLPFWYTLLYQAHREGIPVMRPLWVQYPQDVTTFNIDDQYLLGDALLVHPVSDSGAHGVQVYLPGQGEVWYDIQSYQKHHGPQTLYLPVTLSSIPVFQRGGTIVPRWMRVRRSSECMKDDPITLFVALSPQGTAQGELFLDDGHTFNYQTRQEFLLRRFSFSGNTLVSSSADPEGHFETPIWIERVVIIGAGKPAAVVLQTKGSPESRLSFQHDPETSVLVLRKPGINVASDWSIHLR

Homo sapiens [7] = organism: Homo sapiens; experiment: Inhibition of human beta galactosidase
[8] = Enhancement of ConA-induced IL6 secretion in Swiss Albino mouse splenocytes by ELISA relative to control; type: functional, Splenocyte
[9] = Enhancement of ConA-induced IFN-gamma secretion in Swiss Albino mouse splenocytes by ELISA relative to control; type: functional, Splenocyte
[10] = molecular target: T2, Alpha-galactosidase A (Homo sapiens) (UniProt P06280); experiment: Inhibition of human alpha galactosidase
T2 sequence (whole entry): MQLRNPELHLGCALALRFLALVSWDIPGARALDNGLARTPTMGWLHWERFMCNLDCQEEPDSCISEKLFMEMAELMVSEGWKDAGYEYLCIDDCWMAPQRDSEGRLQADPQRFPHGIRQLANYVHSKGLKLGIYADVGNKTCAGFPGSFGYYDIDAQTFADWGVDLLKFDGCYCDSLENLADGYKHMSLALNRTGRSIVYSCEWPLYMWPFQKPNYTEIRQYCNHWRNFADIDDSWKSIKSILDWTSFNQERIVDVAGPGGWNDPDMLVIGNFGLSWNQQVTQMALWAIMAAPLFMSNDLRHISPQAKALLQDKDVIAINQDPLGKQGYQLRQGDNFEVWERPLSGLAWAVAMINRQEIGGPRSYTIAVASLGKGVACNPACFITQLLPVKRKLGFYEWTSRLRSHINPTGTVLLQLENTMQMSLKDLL

Homo sapiens [11] = organism: Homo sapiens; experiment: Inhibition of human beta glucosidase
Splenocyte = experiment: (§1) Enhancement of ConA-induced proliferation in Swiss Albino mouse splenocyte at 75 uM after 72 hrs by MTT assay relative to control; type: functional
[12] = molecular target: Mannosyl-oligosaccharide 1,2-alpha-mannosidase IA (Homo sapiens) (UniProt P33908); experiment: Inhibition of human alpha mannosidase
Mannosyl-oligosaccharide 1,2-alpha-mannosidase IA (Homo sapiens), sequence (P33908 whole entry): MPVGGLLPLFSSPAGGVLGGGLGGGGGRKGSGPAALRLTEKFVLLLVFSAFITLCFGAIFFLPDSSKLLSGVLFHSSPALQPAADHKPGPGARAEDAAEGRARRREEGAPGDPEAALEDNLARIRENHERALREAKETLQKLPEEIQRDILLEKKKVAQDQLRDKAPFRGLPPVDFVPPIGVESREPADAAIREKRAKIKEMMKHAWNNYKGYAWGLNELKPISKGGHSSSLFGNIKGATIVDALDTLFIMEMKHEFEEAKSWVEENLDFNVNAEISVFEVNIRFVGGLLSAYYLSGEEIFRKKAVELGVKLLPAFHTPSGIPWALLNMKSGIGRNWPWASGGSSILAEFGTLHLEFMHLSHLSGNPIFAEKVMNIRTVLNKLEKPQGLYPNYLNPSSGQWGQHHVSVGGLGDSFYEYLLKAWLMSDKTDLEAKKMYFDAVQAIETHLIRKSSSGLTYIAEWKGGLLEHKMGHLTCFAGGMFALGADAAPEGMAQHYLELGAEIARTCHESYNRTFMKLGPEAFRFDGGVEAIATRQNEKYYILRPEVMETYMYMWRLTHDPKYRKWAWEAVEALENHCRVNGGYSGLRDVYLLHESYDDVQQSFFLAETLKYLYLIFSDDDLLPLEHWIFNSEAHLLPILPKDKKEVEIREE

[13] = Enhancement of ConA-induced proliferation in Swiss Albino mouse splenocyte at 5 uM after 72 hrs by MTT assay relative to control; type: functional
[14] = as §1; type: functional

SMILES	Activity [1]	Activity [2]	Activity [3]	Activity [4]	Activity [5]	Activity [6]	Activity (Homo sapiens [7])	Ratio [8]	Activity [9]	Activity [10]	Activity (Homo sapiens [11])	Activity (Splenocyte)	Activity [12]	Activity [13]	Activity [14]
OC[C@H]1CCN2C[C@H](O)[C@@H](O)[C@H](O)[C@@H]12	109%	20.6%	6.6%	40%	27%	inactive	inactive	>5.5	40.5%	inactive	inactive	inactive	inactive	161%	
OC[C@@H]1CCN2C[C@H](O)[C@@H](O)[C@H](O)[C@@H]12	61%	47%	3.3%	69%	31%	inactive	inactive	>9	9.5%	inactive	inactive		inactive	19%	41%

From ChEMBL document CHEMBL1137581, “Synthesis of 1-deoxy-1-hydroxymethyl- and 1-deoxy-1-epi-hydroxymethyl castanospermine as new potential immunomodulating agents” (2007)
